Experimental data taken from PubChem BioAssay AID2060496 (Molecular Pharmacology Branch, DTP, NCI, 2025).

Test system: 276233-004-R-J1-PDC complex spheroid viability
Assay: Anticancer human tumor 276233-004-R-J1-PDC patient-derived colon adenocarcinoma cell line growth inhibition [GQUAD]
Conditions: for IC50: curve of first compound; for viability, T/C: stronger effect = lower value
Description: DNA G-quadruplex Stabilizer Agents in Combinations in Complex Spheroids
A high-throughput screen of multi-cell type tumor spheroids was designed to identify active combinations of DNA G-quadruplex stabilizer agents and targeted small molecules. Complex spheroids include a stromal component modeled by human endothelial cells (HUVEC) and fibroblasts modeled by human mesenchymal stem cells (MSCs). The concentration ranges selected for each drug and investigational agent were based upon clinically achievable concentrations if the clinical Cmax of the agent was known.
Compounds. The drugs and investigational agents: pidnarulex (CX-5461; NSC782164), APTO-253 (NSC789042), BRACO-19 (NSC847499), peposertib (NSC802822), ceralasertib (NSC780249), elimusertib (NSC800525), camonsertib (NSC841442), AZD-1390 (NSC803789), olaparib (NSC753686), talazoparib (NSC767125), ART-558 (NSC835418), sotorasib (NSC818433), MRTX-1133 (NSC836407), SN-38 (NSC673596), topotecan (NSC609699), etoposide (NSC141540), doxorubicin (NSC123127), gemcitabine (NSC613327), 5-fluorouracil (NSC19893), paclitaxel (NSC125973), vemurafenib (NSC761431), panobinostat (NSC761190), R-306465 (JNJ-16241199; NSC773264), adavosertib (NSC754352), TP-3654 (NSC805149), carboplatin (NSC241240), KSQ-4279 (NSC840948), and staurosporine (NSC755774) were obtained from the National Cancer Institute (NCI) Developmental Therapeutics Program Chemical Repository (34). The FDA-approved anticancer drug set is available from the NCI Developmental Therapeutics Program. […] The stock solutions were prepared in dimethyl sulfoxide (DMSO, Sigma-Aldrich, St. Louis, MO, cat. D2650) at 800-fold the tested concentration and stored at -70 degrees C prior to their use. All drugs and investigational agents were tested over a range starting from a high concentration at or near the clinical Cmax and decreasing in half-log increments. If the clinical Cmax for an agent had not been determined, the highest concentration tested was 10 microM.
2.3 Cell Culture. All cells were maintained in an incubator at 37 degrees C and 5% CO2 with 95% humidity. The PDC lines were cultured according to standard operating procedures established by the NCI PDMR. All PDCs were thawed and cultured in Matrigel-coated flasks prepared with a working solution of 1X Ham's F-12 nutrient mix, without supplementation (Invitrogen, cat. 11765054), 100 U/mL penicillin-streptomycin (Invitrogen, cat. 15140122), and 2.5% Matrigel (Corning Inc., cat. 354248) for the first three passages. The 857933-349-R-J2-PDC line was cultured in 6C/Colon 1B media, which includes advanced DMEM/F-12 (Thermo Fisher Scientific, cat. 12634028), 10 mM HEPES (Thermo Fisher Scientific, cat. 15630080), 1X GlutaMAX supplement (Thermo Fisher Scientific, cat. 35050061), 0.1 mg/mL primocin (InvivoGen, cat. ant-pm-2), 10% defined fetal bovine serum, heat inactivated (HyClone Laboratories Inc., cat. SH30070.03HI), 50% L-WRN conditioned media (ATCC, cat. CRL-3276), 1.25 mM N-Acetyl-L-cysteine (Sigma-Aldrich, cat. A9165), 10 mM nicotinamide (Sigma-Aldrich, cat. N0636), 1X B-27 supplement (Thermo Fisher Scientific, cat. 17504044), 1X N-2 supplement (Thermo Fisher Scientific, cat. 17502048), 10 microM Y-27632 dihydrochloride (Tocris Bioscience, cat. 1254), and 50 ng/mL human EGF recombinant protein (Thermo Fisher Scientific, cat. PHG0311). The 485176-168-R4-J1-PDC line was cultured in Panc media, which includes all 6C/Colon 1B media components plus 100 ng/mL human FGF-10 (Thermo Fisher Scientific, cat. 100-26), 500 nM SB-431542 (Selleckchem, cat. S1067), and gastrin (Tocris, cat. 3006).
[…]
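Note: spheroids exposed to drugs for seven days.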
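Throughout, for viability, T/C: 100% = DMSO vehicle control viability.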

SMILES: COc1cccc2c1C(=O)c1c(O)c3c(c(O)c1C2=O)CC(O)(C(=O)CO)CC3OC1CC(N)C(O)C(C)O1 (configuration not stated) + CN(C)c1ccc(Nc2c3ccc(NC(=O)CCN4CCCC4)cc3nc3cc(NC(=O)CCN4CCCC4)ccc23)cc1
- IC50 (second compound 0.0316 µM): > 10 µM
- IC50 (second compound 0.1 µM): > 10 µM
- IC50 (second compound 0.316 µM): > 10 µM
- IC50 (second compound 1 µM): > 10 µM
- IC50 (second compound 3.16 µM): < 0.0316 µM
- IC50 (second compound 10 µM): > 10 µM
- viability, T/C (second compound 0.0316 µM, first compound 0.0316 µM): 88%
- viability, T/C (second compound 0.0316 µM, first compound 0.1 µM): 94.7%
- viability, T/C (second compound 0.0316 µM, first compound 0.316 µM): 77.5%
- viability, T/C (second compound 0.0316 µM, first compound 1 µM): 61.7%
- viability, T/C (second compound 0.0316 µM, first compound 3.16 µM): 43%
- viability, T/C (second compound 0.0316 µM, first compound 10 µM): 66.7%
- viability, T/C (second compound 0.1 µM, first compound 0.0316 µM): 102%
- viability, T/C (second compound 0.1 µM, first compound 0.1 µM): 83.8%
- viability, T/C (second compound 0.1 µM, first compound 0.316 µM): 72.8%
- viability, T/C (second compound 0.1 µM, first compound 1 µM): 74.8%
- viability, T/C (second compound 0.1 µM, first compound 3.16 µM): 60.6%
- viability, T/C (second compound 0.1 µM, first compound 10 µM): 76.7%
- viability, T/C (second compound 0.316 µM, first compound 0.0316 µM): 80.6%
- viability, T/C (second compound 0.316 µM, first compound 0.1 µM): 68.4%
- viability, T/C (second compound 0.316 µM, first compound 0.316 µM): 67.9%
- viability, T/C (second compound 0.316 µM, first compound 1 µM): 40.8%
- viability, T/C (second compound 0.316 µM, first compound 3.16 µM): 63.1%
- viability, T/C (second compound 0.316 µM, first compound 10 µM): 54.4%
- viability, T/C (second compound 1 µM, first compound 0.0316 µM): 55.8%
- viability, T/C (second compound 1 µM, first compound 0.1 µM): 47%
- viability, T/C (second compound 1 µM, first compound 0.316 µM): 53.2%
- viability, T/C (second compound 1 µM, first compound 1 µM): 52.3%
- viability, T/C (second compound 1 µM, first compound 3.16 µM): 63.5%
- viability, T/C (second compound 1 µM, first compound 10 µM): 52.8%
- viability, T/C (second compound 3.16 µM, first compound 0.0316 µM): 49.6%
- viability, T/C (second compound 3.16 µM, first compound 0.1 µM): 49.3%
- viability, T/C (second compound 3.16 µM, first compound 0.316 µM): 56.8%
- viability, T/C (second compound 3.16 µM, first compound 1 µM): 56.4%
- viability, T/C (second compound 3.16 µM, first compound 3.16 µM): 59.4%
- viability, T/C (second compound 3.16 µM, first compound 10 µM): 53.7%
- viability, T/C (second compound 10 µM, first compound 0.0316 µM): 48.6%
- viability, T/C (second compound 10 µM, first compound 0.1 µM): 51.5%
- viability, T/C (second compound 10 µM, first compound 0.316 µM): 55.7%
- viability, T/C (second compound 10 µM, first compound 1 µM): 62.6%
- viability, T/C (second compound 10 µM, first compound 3.16 µM): 50.5%
- viability, T/C (second compound 10 µM, first compound 10 µM): 43.5%
